Measured values from paper PMC6927504, “Screening of House Dust from Chinese Homes for Chemicals with Liver X Receptors Binding Activities and Characterization of Atherosclerotic Activity Using an in Vitro Macrophage Cell Line and ApoE^−/− Mice” (Environmental Health Perspectives, 2019).

Test system: mouse peritoneal macrophages
Test: NBD-cholesterol efflux in peritoneal macrophages isolated from exposed C57BL/6 mice
Assay type: in vivo
Conditions: 200 mg/kg BW for 7 d
Experimental: RAW264.7 cells or mouse peritoneal macrophages were plated in 96-well plates at 10^4 cells/well and cultured with DMEM-F12 containing 10% FBS and 1μg/mL 22-[N-(7-nitrobenz-2-oxa-1,3-diazol-4-yl)amino]-23,24-bisnor-5-cholen-3β-Ol (NBD-cholesterol) for 24 h. Subsequently, the medium was completely removed and fresh DMEM-F12 containing 10% FBS and 0.1% DMSO (control; n=3 ) or TPHP at the concentration of 1–20,000 nM ( n=3 per group) was added. After a further 24-h incubation, the cells were washed with phosphate-buffered saline (PBS) and then incubated with serum-free medium containing ApoA-I ( 20μg/mL ) or high-density lipoprotein (HDL; 50μg/mL ) for 4 h. Then the medium was collected, and the cells were lysed with a cell lysis buffer. NBD-cholesterol in the medium and cell lysis buffer were measured, respectively, using a Tecan Infinite® M1000Pro Microplate Reader (Tecan Group Ltd.) at 485-nm excitation wavelength and 535-nm emission wavelength. Cholesterol efflux was expressed as a percentage of fluorescence in the medium relative to the total amount of fluorescence.
All experiments related to animals were approved by the institutional animal care and use committee of Peking University and followed the guidelines for animal experiments of the university as well as for experimental animals in China. […] Body weight (BW) was measured every week during the dosing period. […]

O=P(Oc1ccccc1)(Oc1ccccc1)Oc1ccccc1 [TPHP, triphenyl phosphate]
ApoA-I-mediated cholesterol efflux in peritoneal macrophages: Significant inhibition
HDL-mediated cholesterol efflux in peritoneal macrophages: Significant inhibition
